Experimental data reported in article PMC8190356, “The Effect of the EGFR - Targeting Compound 3-[(4-Phenylpyrimidin-2-yl) Amino] Benzene-1-Sulfonamide (13f) against Cholangiocarcinoma Cell Lines” (Asian Pacific Journal of Cancer Prevention : APJCP, 2021).

Molecular target: T1, tyrosine kinase of EGFR (TK-EGFR) (Homo sapiens, UniProt P00533)
T1 construct: tyrosine kinase of EGFR (TK-EGFR), recombinant protein from E. coli
Assay: ADP-Glo kinase assay with recombinant TK-EGFR, […] ATP
Assay type: biochemical

T1 sequence (P00533 25-1210): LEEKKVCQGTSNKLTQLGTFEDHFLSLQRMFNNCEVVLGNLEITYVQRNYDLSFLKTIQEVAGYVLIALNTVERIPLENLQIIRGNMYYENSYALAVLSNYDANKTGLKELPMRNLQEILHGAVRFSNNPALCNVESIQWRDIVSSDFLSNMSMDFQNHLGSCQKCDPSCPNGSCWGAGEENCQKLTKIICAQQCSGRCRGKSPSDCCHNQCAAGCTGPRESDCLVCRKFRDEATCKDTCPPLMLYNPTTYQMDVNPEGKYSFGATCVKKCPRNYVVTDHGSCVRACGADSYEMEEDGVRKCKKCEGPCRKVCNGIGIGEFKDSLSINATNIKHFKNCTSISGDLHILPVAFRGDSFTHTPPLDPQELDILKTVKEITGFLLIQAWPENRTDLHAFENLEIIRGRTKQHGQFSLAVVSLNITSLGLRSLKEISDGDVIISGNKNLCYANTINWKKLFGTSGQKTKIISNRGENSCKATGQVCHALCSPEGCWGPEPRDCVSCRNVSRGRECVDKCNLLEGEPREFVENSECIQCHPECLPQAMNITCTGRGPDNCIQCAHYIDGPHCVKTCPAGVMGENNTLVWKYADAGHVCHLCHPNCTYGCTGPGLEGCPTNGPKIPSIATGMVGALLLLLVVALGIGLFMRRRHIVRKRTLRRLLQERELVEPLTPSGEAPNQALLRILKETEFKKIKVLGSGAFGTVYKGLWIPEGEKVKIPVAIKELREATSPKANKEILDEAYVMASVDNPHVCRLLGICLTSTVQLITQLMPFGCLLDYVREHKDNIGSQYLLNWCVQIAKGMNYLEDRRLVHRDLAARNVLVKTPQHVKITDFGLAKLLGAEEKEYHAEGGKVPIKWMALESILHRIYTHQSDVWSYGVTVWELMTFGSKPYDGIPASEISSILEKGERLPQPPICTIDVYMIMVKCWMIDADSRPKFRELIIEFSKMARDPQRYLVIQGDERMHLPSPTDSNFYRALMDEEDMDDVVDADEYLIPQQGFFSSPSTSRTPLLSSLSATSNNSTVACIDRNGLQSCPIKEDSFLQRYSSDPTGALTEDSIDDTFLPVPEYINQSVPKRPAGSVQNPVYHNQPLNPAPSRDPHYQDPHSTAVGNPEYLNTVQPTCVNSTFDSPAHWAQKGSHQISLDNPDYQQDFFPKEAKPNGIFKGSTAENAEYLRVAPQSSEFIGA

NS(=O)(=O)c1cccc(Nc2nccc(-c3ccccc3)n2)c1 [13f, 3-[(4-phenylpyrimidin-2-yl)amino] benzene-1-sulfonamide]
IC50: 22.7 nM
